Results as given in PubChem BioAssay (NCI).
Values joined by “and” are separate entries in the source; they are usually repeats but may differ in a detail not shown here. Identical values can stand only once.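 Method: 48-hour compound exposure of cells in 96-well plates, five concentrations, linear interpolation of endpoints. GI50 = concentration required for 50% inhibition of growth. TGI: concentration producing complete growth inhibition.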

How the values were obtained:
Assay in all cases: DTP human tumour cell line panel, 48 h
[1] = test system: SNB-75 CNS
[2] = test system: EKVX NSCLC
[3] = test system: BT-549 breast
[4] = test system: HOP-62 NSCLC
[5] = test system: K-562 leukemia
[6] = test system: HS 578T breast
[7] = test system: 786-0 renal
[8] = test system: SW-620 colon
[9] = test system: OVCAR-4 ovarian
[10] = test system: CCRF-CEM leukemia
[11] = test system: SK-MEL-2 melanoma
[12] = test system: HCT-116 colon
[13] = test system: OVCAR-5 ovarian
[14] = test system: ACHN renal
[15] = test system: A498 renal
[16] = test system: CAKI-1 renal
[17] = test system: OVCAR-8 ovarian
[18] = test system: SF-268 CNS
[19] = test system: NCI-H226 lung
[20] = test system: SNB-19 CNS
[21] = test system: RXF 393 renal
[22] = test system: U251 CNS
[23] = test system: UACC-257 melanoma
[24] = test system: MALME-3M melanoma
[25] = test system: T-47D breast
[26] = test system: NCI-H460 lung
[27] = test system: COLO 205 colon
[28] = test system: SN12C renal
[29] = test system: NCI-H23 lung
[30] = test system: HL-60(TB) leukemia
[31] = test system: MCF7 breast
[32] = test system: KM12 colon
[33] = test system: HT29 colon
[34] = test system: RPMI-8226 leukemia
[35] = test system: UACC-62 melanoma
[36] = test system: SR leukemia
[37] = test system: SF-295 CNS
[38] = test system: DU-145 prostate
[39] = test system: LOX IMVI melanoma
[40] = test system: A549 NSCLC
[41] = test system: MOLT-4 leukemia
[42] = test system: TK-10 renal
[43] = test system: NCI/ADR-RES ovarian
[44] = test system: NCI-H522 lung
[45] = test system: SK-MEL-28 melanoma
[46] = test system: UO-31 renal
[47] = test system: MDA-MB-231 breast
[48] = test system: SK-OV-3 ovarian
[49] = test system: HCT-15 colon
[50] = test system: SK-MEL-5 melanoma
[51] = test system: HCC-2998 colon
[52] = test system: OVCAR-3 ovarian
[53] = test system: IGROV1 ovarian
[54] = test system: M14 melanoma
[55] = test system: MDA-MB-435
[56] = test system: SF-539 CNS
[57] = test system: HOP-92 NSCLC

## C[C@H](NC(=O)[C@@H](C)N)[C@H](Oc1ccc2c(cnn2-c2ccc(F)cc2)c1)c1ccc2c(c1)OCCO2
[1]
  GI50: 3150 nM
  TGI: 10800 nM
[2]
  GI50: 1040 nM
  TGI: 12100 nM
[3]
  GI50: 1820 nM
  TGI: 15000 nM
[4]
  GI50: 4340 nM
  TGI: 20100 nM
[5]
  GI50: 1980 nM
  TGI: 4700 nM
[6]
  GI50: 3670 nM
  TGI: 13100 nM
[7]
  GI50: 3770 nM
  TGI: 14300 nM
[8]
  GI50: 1710 nM
  TGI: 3360 nM
[9]
  GI50: 2840 nM
  TGI: 12100 nM
[10]
  GI50: 1490 nM
  TGI: 4600 nM
[11]
  GI50: 1910 nM
  TGI: 3920 nM
[12]
  GI50: 1870 nM
  TGI: 3730 nM
[13]
  GI50: 2290 nM
  TGI: 7110 nM
[14]
  GI50: 1830 nM
  TGI: 4900 nM
[15]
  GI50: 11500 nM
  TGI: 24400 nM
[16]
  GI50: 1090 nM
  TGI: 4790 nM
[17]
  GI50: 3250 nM
  TGI: 14000 nM
[18]
  GI50: 2480 nM
  TGI: 10700 nM
[19]
  GI50: 2640 nM
  TGI: 15800 nM
[20]
  GI50: 3290 nM
  TGI: 12400 nM
[21]
  GI50: 3580 nM
  TGI: 11200 nM
[22]
  GI50: 2400 nM
  TGI: 5560 nM
[23]
  GI50: 1940 nM
  TGI: 3610 nM
[24]
  GI50: 1500 nM
  TGI: 3090 nM
[25]
  GI50: 2190 nM
  TGI: 5410 nM
[26]
  GI50: 1560 nM
  TGI: 3150 nM
[27]
  GI50: 1830 nM
  TGI: 3610 nM
[28]
  GI50: 1290 nM
  TGI: 4270 nM
[29]
  GI50: 3930 nM
  TGI: 15600 nM
[30]
  GI50: 2280 nM
  TGI: 4940 nM
[31]
  GI50: 1430 nM
  TGI: 3710 nM
[32]
  GI50: 2130 nM
  TGI: 5150 nM
[33]
  GI50: 1870 nM
  TGI: 3840 nM
[34]
  GI50: 1170 nM
  TGI: 3750 nM
[35]
  GI50: 1870 nM
  TGI: 3390 nM
[36]
  GI50: 2030 nM
  TGI: 5240 nM
[37]
  GI50: 1950 nM
  TGI: 3900 nM
[38]
  GI50: 2020 nM
  TGI: 5010 nM
[39]
  GI50: 1780 nM
  TGI: 3410 nM
[40]
  GI50: 1360 nM
  TGI: 12600 nM
[41]
  GI50: 1440 nM
  TGI: 4250 nM
[42]
  GI50: 2220 nM
  TGI: 5250 nM
[43]
  GI50: 2690 nM
  TGI: 13500 nM
[44]
  GI50: 1900 nM
  TGI: 3780 nM
[45]
  GI50: 1750 nM
  TGI: 3400 nM
[46]
  GI50: 1390 nM
  TGI: 3270 nM
[47]
  GI50: 1930 nM
  TGI: 4690 nM
[48]
  GI50: 208 nM
  TGI: 13500 nM
[49]
  GI50: 1980 nM
  TGI: 4440 nM
[50]
  GI50: 1520 nM
  TGI: 2940 nM
[51]
  GI50: 1780 nM
  TGI: 3660 nM
[52]
  GI50: 2370 nM
  TGI: 6980 nM
[53]
  GI50: 1840 nM
  TGI: 5070 nM
[54]
  GI50: 1680 nM
  TGI: 3300 nM
[55]
  GI50: 1610 nM
  TGI: 3240 nM
[56]
  GI50: 1650 nM
  TGI: 3540 nM

## O=C1NC2C(CC(O)C(O)C2O)c2cc3c(c(O)c21)OCO3 (stereo not given)
[27]
  GI50: 25.5 nM and < 10 nM
  TGI: 127 nM and 15.6 nM

## Cc1cccc(/C=C/c2c(C(=O)/C=C/c3ccccc3)c(C)nc3ccccc23)c1
[1]
  GI50: 1420 nM
  TGI: 2950 nM
[2]
  GI50: 1750 nM
  TGI: 3260 nM
[4]
  GI50: 1750 nM
  TGI: 3480 nM
[7]
  GI50: 1620 nM
  TGI: 3110 nM
[8]
  GI50: 1340 nM
  TGI: 2980 nM
[10]
  GI50: 1330 nM
  TGI: > 100000 nM
[11]
  GI50: 1770 nM
  TGI: 3630 nM
[13]
  GI50: 1980 nM
  TGI: 3560 nM
[14]
  GI50: 1620 nM
  TGI: 2970 nM
[15]
  GI50: 1770 nM
  TGI: 3260 nM
[16]
  GI50: 1290 nM
  TGI: 2590 nM
[19]
  GI50: 1730 nM
  TGI: 3820 nM
[20]
  GI50: 1670 nM
  TGI: 3040 nM
[21]
  GI50: 1510 nM
  TGI: 2860 nM
[57]
  GI50: 1480 nM
  TGI: 4000 nM
[22]
  GI50: 1470 nM
  TGI: 2850 nM
[23]
  GI50: 1650 nM
  TGI: 3280 nM
[24]
  GI50: 1790 nM
  TGI: 3200 nM
[25]
  GI50: 1290 nM
  TGI: 3660 nM
[26]
  GI50: 1300 nM
  TGI: 2940 nM
[27]
  GI50: 1810 nM
  TGI: 4340 nM
[28]
  GI50: 1680 nM
  TGI: 3500 nM
[29]
  GI50: 1580 nM
  TGI: 3570 nM
[30]
  GI50: 1830 nM
  TGI: 4340 nM
[31]
  GI50: 565 nM
  TGI: 4220 nM
[32]
  GI50: 1720 nM
  TGI: 3560 nM
[33]
  GI50: 2120 nM
  TGI: 16900 nM
[35]
  GI50: 1580 nM
  TGI: 3140 nM
[36]
  GI50: 982 nM
  TGI: 4940 nM
[37]
  GI50: 1890 nM
  TGI: 3730 nM
[39]
  GI50: 1580 nM
  TGI: 2930 nM
[40]
  GI50: 1910 nM
  TGI: 4760 nM
[41]
  GI50: 508 nM
  TGI: 3720 nM
[43]
  GI50: 1850 nM
  TGI: 4650 nM
[45]
  GI50: 1810 nM
  TGI: 3280 nM
[46]
  GI50: 1260 nM
  TGI: 2510 nM
[49]
  GI50: 1260 nM
  TGI: 3570 nM
[50]
  GI50: 1640 nM
  TGI: 2990 nM
[51]
  GI50: 1730 nM
  TGI: 3490 nM
[52]
  GI50: 1460 nM
  TGI: 2810 nM
[53]
  GI50: 1440 nM
  TGI: 4000 nM
[55]
  GI50: 1810 nM
  TGI: 4290 nM
[56]
  GI50: 1710 nM
  TGI: 3120 nM
